Measured values reported in PubChem BioAssay (NCI).
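All cell lines were grown in 96-well plates and treated with compound for 48 hours. TGI: concentration producing complete growth inhibition.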 Where a SMILES comes first, the peptide text is derived from it. [ ]: non-standard residue; d: D form. The star is where a group is joined. hSer = N[CH](CCO)C(=O)O; Boc = CC(C)(C)OC(=O)*

How the values were obtained:
Experiment in all cases: DTP human tumour cell line panel, 48 h
OVCAR-4 ovarian = system: OVCAR-4 ovarian
HCT-15 colon = system: HCT-15 colon
OVCAR-5 ovarian = system: OVCAR-5 ovarian
IGROV1 ovarian = system: IGROV1 ovarian
MALME-3M melanoma = system: MALME-3M melanoma
786-0 renal = system: 786-0 renal
UACC-257 melanoma = system: UACC-257 melanoma
A549 NSCLC = system: A549 NSCLC
MDA-MB-231 breast = system: MDA-MB-231 breast
SNB-75 CNS = system: SNB-75 CNS

| Compound | TGI (OVCAR-4 ovarian) [µM] | TGI (HCT-15 colon) [µM] | TGI (OVCAR-5 ovarian) [µM] | TGI (IGROV1 ovarian) [µM] | TGI (MALME-3M melanoma) [µM] | TGI (786-0 renal) [µM] | TGI (UACC-257 melanoma) [µM] | TGI (A549 NSCLC) [µM] | TGI (MDA-MB-231 breast) [µM] | TGI (SNB-75 CNS) [µM] |
| --- | --- | --- | --- | --- | --- | --- | --- | --- | --- | --- |
| CC(C)(C)C1CCC2c3c([nH]c4ccccc34)C3C(=O)N(c4cc(Br)cc(Br)c4)C(=O)C3C2C1 (centres undefined) | 69.7 | > 100 | > 100 | > 100 | > 100 | 18.6 | > 100 | > 100 | 58.8 |  |
| COc1cc2c(cc1OC)C(=O)N(c1ccc(O)cc1)C2 | > 100 | > 100 | > 100 | > 100 | > 100 | > 100 | > 100 | > 100 | > 100 |  |
| COc1ccc(-n2sc3ncc(-c4ccccc4)cc3c2=O)cc1 | 45.7 | > 100 | 74 | 78.8 |  | 39.3 | > 100 | > 100 |  | > 100 |
| Nc1c(Br)cc(-c2cc(Br)c(N)c(Br)c2)cc1Br | > 100 |  | > 100 | > 100 | > 100 | > 100 | > 100 | > 100 | > 100 | > 100 |
| COc1ccc(C(=O)C2CC3(CCC2(O)c2ccc(OC)cc2)CC(=O)Nc2ccccc2C3=O)cc1 (centres undefined) | 39.9 | > 100 | > 100 | > 100 | > 100 |  | > 100 | > 100 | > 100 | > 100 |
| COc1ccc2c(O)c3[n+](cc2c1OC)CCc1cc2c(cc1-3)OCO2 | > 100 | > 100 | > 100 | > 100 |  |  | > 100 | > 100 | > 100 | > 100 |
| COc1ccc(C[C@@H]2CN(C(=O)c3ccccc3)[C@H](Cc3ccc(O)cc3)CN2C(=O)c2ccccc2)cc1Br | > 100 | > 100 | > 100 | > 100 | > 100 | > 100 | > 100 | > 100 |  | > 100 |
| COCCC(NC(=O)C(CC(C)C)NC(=O)OC(C)(C)C)C(N)=O (stereo not drawn) (Boc-Leu-[hSer](Me)-NH2; configuration not given here) | > 100 | > 100 |  | > 100 | > 100 | > 100 | > 100 | > 100 | > 100 | > 100 |
| Nc1cc2c(cc1[N+](=O)[O-])[nH]c1c(-c3ccccc3)nccc12 | 50.6 | > 57.3 | 98.3 | 35.9 | 52.1 |  | 42.4 | 69.6 |  | 55.7 |
| O=c1c2cc([N+](=O)[O-])ccc2n2n1Cc1ccccc1CC2 | > 100 | > 100 | > 100 | > 100 | > 100 | > 100 | > 100 | > 100 | > 100 |  |
| On1c(-c2ccccc2)c(-c2c(-c3ccccc3)n(O)c3ccccc23)c2ccccc21 | > 100 | > 100 |  |  | 79.7 | 39.7 | 88.9 | > 100 |  | 94 |
